Source: patent US20240076293A1, “Compositions and Methods for Inhibiting Fibrosis, Inflammation and Cancer” (Georgia Tech Research Corporation, priority 2020, published 2024)
Like-named read-outs stand apart in the source and are kept apart here.

What was measured:
Type in all cases: cell-based
VERO = assay: Anti-proliferation IC50, VERO; conditions: Chlorocebus sabaeus
MRC-5 = assay: Anti-proliferation IC50, MRC-5; conditions: Homo sapiens, MRC5; Table 2, compounds of formula II
A549 = assay: Anti-proliferation IC50, A549; conditions: Homo sapiens
Hep-G2 = assay: Anti-proliferation IC50, Hep-G2; conditions: Homo sapiens, HepG2
[1] = Anti-proliferation IC50, MRC-5; conditions: human, MRC-5 cells; Table 1, compounds of formula I; NI = no inhibition up to 500 μM
[2] = Table 2, compounds of formula II, read-out: Anti-proliferation IC50 VERO
[3] = Table 2, compounds of formula II, read-out: Anti-proliferation IC50 A549
[4] = Table 2, compounds of formula II, read-out: Anti-proliferation IC50 Hep-G2
[5] = Table 1, compounds of formula I, NI = no inhibition up to 500 μM, read-out: VERO (IC50)
[6] = Table 1, compounds of formula I, NI = no inhibition up to 500 μM, read-out: A549 (IC50)
[7] = Table 1, compounds of formula I, NI = no inhibition up to 500 μM, read-out: Hep-G2 (IC50)

Structure (SMILES): CC[C@@H]1OC(=O)[C@@H](C)[C@H](O)[C@@H](C)[C@H](O[C@H]2O[C@@H](C)C[C@@H](N(C)Cc3ccc(-c4cn(CCNC(=O)CCCC[C@H]5CCSS5)nn4)cc3)[C@@H]2O)C(C)(O)C[C@H](C)CN(C)[C@@H](C)[C@H](O)[C@@]1(C)O (some centres unmarked)
- IC50 (VERO; [2]): 47.7 ± 6.2 µM
- IC50 (MRC-5): 17.9 ± 0.5 µM
- IC50 (A549; [3]): 27.4 ± 0.5 µM
- IC50 (Hep-G2; [4]): 14.8 ± 2.1 µM

Structure (SMILES): CC[C@@H]1OC(=O)[C@@H](C)[C@H](O)[C@@H](C)[C@H](O[C@H]2O[C@@H](C)C[C@@H](N(C)Cc3ccc(-c4cn(CCCNC(=O)CCCC[C@H]5CCSS5)nn4)cc3)[C@@H]2O)C(C)(O)C[C@H](C)CN(C)[C@@H](C)[C@H](O)[C@@]1(C)O (some centres unmarked)
- IC50 (VERO; [2]): 168 ± 19.7 µM
- IC50 (MRC-5): 145 ± 3.5 µM
- IC50 (A549; [3]): 92.9 ± 13 µM
- IC50 (Hep-G2; [4]): 157 ± 11.4 µM

Structure (SMILES): CC[C@@H]1OC(=O)[C@@H](C)[C@H](O[C@H]2C[C@@](C)(OC)[C@@H](O)[C@H](C)O2)[C@@H](C)[C@H](O[C@H]2O[C@@H](C)C[C@@H](N(C)C)[C@@H]2OC(=O)/C=C/C=C/c2ccc3c(c2)OCO3)C(C)(O)C[C@H](C)CN(C)[C@@H](C)[C@H](O)[C@@]1(C)O (some centres unmarked)
- IC50 (VERO; [2]): 13.2 ± 1.5 µM
- IC50 (MRC-5): 3.8 ± 0.8 µM
- IC50 (A549; [3]): 15.6 ± 2.6 µM
- IC50 (Hep-G2; [4]): 5 ± 0.5 µM

Structure (SMILES): CC[C@@H]1OC(=O)[C@@H](C)[C@H](O[C@H]2C[C@@](C)(OC)[C@@H](O)[C@H](C)O2)C(C)[C@H](O[C@H]2O[C@@H](C)C[C@@H](N(C)C(=O)/C=C/C=C/c3ccc4c(c3)OCO4)[C@@H]2O)C(C)(O)C[C@H](C)CN(C)[C@@H](C)[C@H](O)[C@@]1(C)O (some centres unmarked)
- IC50 (VERO; [2]): 12.9 µM
- IC50 (MRC-5): 11.4 ± 0.4 µM
- IC50 (A549; [3]): 19.6 ± 1.8 µM
- IC50 (Hep-G2; [4]): 10.2 ± 1.9 µM

Structure (SMILES): CC[C@H]1OC(=O)[C@H](C)[C@@H](O[C@H]2C[C@@](C)(OC)[C@@H](O)[C@H](C)O2)[C@H](C)[C@@H](O[C@@H]2O[C@H](C)C[C@H](N(C)Cc3ccc(-n4cc(C)ccc4=O)cc3)[C@H]2O)[C@](C)(O)C[C@@H](C)CN(C)[C@H](C)[C@@H](O)[C@]1(C)O [Compound 11a]
- IC50 (VERO; [2]): 47.2 ± 0.4 µM
- IC50 (MRC-5): 55.8 ± 1.9 µM
- IC50 (A549; [3]): 47.2 ± 5.1 µM
- IC50 (Hep-G2; [4]): 33 ± 5.4 µM

Structure (SMILES): CC[C@H]1OC(=O)[C@H](C)[C@@H](O[C@H]2C[C@@](C)(OC)[C@@H](O)[C@H](C)O2)[C@H](C)[C@@H](O[C@@H]2O[C@H](C)C[C@H](N(C)Cc3cn(Cc4ccc(-n5cc(C)ccc5=O)cc4)nn3)[C@H]2O)[C@](C)(O)C[C@@H](C)CN(C)[C@H](C)[C@@H](O)[C@]1(C)O [Compound 11b]
- IC50 (VERO; [2]): 122 ± 19.4 µM
- IC50 (MRC-5): 121 ± 14.1 µM
- IC50 (A549; [3]): 265 ± 4 µM
- IC50 (Hep-G2; [4]): 234 ± 31.1 µM

Structure (SMILES): CC[C@H]1OC(=O)[C@H](C)[C@@H](O[C@H]2C[C@@](C)(OC)[C@@H](O)[C@H](C)O2)[C@H](C)[C@@H](O[C@@H]2O[C@H](C)C[C@H](N(C)Cc3ccc(-c4cn(Cc5ccc(-n6cc(C)ccc6=O)cc5)nn4)cc3)[C@H]2O)[C@](C)(O)C[C@@H](C)CN(C)[C@H](C)[C@@H](O)[C@]1(C)O [Compound 11c]
- IC50 (VERO; [2]): 16.2 ± 2.8 µM
- IC50 (MRC-5): 13.4 ± 0.1 µM
- IC50 (A549; [3]): 18.4 ± 4.4 µM
- IC50 (Hep-G2; [4]): 11.1 ± 0.3 µM

Structure (SMILES): CC[C@H]1OC(=O)[C@H](C)[C@@H](O[C@H]2C[C@@](C)(OC)[C@@H](O)[C@H](C)O2)[C@H](C)[C@@H](O[C@@H]2O[C@H](C)C[C@H](N(C)CCc3ccc(-n4cc(C)ccc4=O)cc3)[C@H]2O)[C@](C)(O)C[C@@H](C)CN(C)[C@H](C)[C@@H](O)[C@]1(C)O [Compound 13a]
- IC50 (VERO; [2]): 30.3 ± 5.2 µM
- IC50 (MRC-5): 36.1 ± 3.3 µM
- IC50 (A549; [3]): 40.8 ± 4 µM
- IC50 (Hep-G2; [4]): 27.2 ± 2.3 µM

Structure (SMILES): CC[C@H]1OC(=O)[C@H](C)[C@@H](O[C@H]2C[C@@](C)(OC)[C@@H](O)[C@H](C)O2)[C@H](C)[C@@H](O[C@@H]2O[C@H](C)C[C@H](N(C)Cc3cn(CCc4ccc(-n5cc(C)ccc5=O)cc4)nn3)[C@H]2O)[C@](C)(O)C[C@@H](C)CN(C)[C@H](C)[C@@H](O)[C@]1(C)O [Compound 13b]
- IC50 (VERO; [2]): 151 ± 30.6 µM
- IC50 (MRC-5): 172 ± 26.9 µM
- IC50 (A549; [3]): 144 ± 24.5 µM
- IC50 (Hep-G2; [4]): 163.4 ± 1.6 µM

Structure (SMILES): CC[C@H]1OC(=O)[C@H](C)[C@@H](O[C@H]2C[C@@](C)(OC)[C@@H](O)[C@H](C)O2)[C@H](C)[C@@H](O[C@@H]2O[C@H](C)C[C@H](N(C)Cc3ccc(-c4cn(CCc5ccc(-n6cc(C)ccc6=O)cc5)nn4)cc3)[C@H]2O)[C@](C)(O)C[C@@H](C)CN(C)[C@H](C)[C@@H](O)[C@]1(C)O [Compound 13c]
- IC50 (VERO; [2]): 22.6 ± 4.9 µM
- IC50 (MRC-5): 13.3 ± 0.9 µM
- IC50 (A549; [3]): 15.8 ± 3 µM
- IC50 (Hep-G2; [4]): 21.8 ± 0.4 µM

Structure (SMILES): CC[C@H]1OC(=O)[C@H](C)[C@@H](O[C@H]2C[C@@](C)(OC)[C@@H](O)[C@H](C)O2)[C@H](C)[C@@H](O[C@@H]2O[C@H](C)C[C@H](N(C)CCCCc3ccc(-n4cc(C)ccc4=O)cc3)[C@H]2O)[C@](C)(O)C[C@@H](C)CN(C)[C@H](C)[C@@H](O)[C@]1(C)O [Compound 15a]
- IC50 (VERO; [2]): 23.9 ± 1.7 µM
- IC50 (MRC-5): 5.9 ± 0.1 µM
- IC50 (A549; [3]): 43.2 ± 5.7 µM
- IC50 (Hep-G2; [4]): 52.2 ± 1 µM

Structure (SMILES): CC[C@H]1OC(=O)[C@H](C)[C@@H](O[C@H]2C[C@@](C)(OC)[C@@H](O)[C@H](C)O2)[C@H](C)[C@@H](O[C@@H]2O[C@H](C)C[C@H](N(C)Cc3cn(CCCCc4ccc(-n5cc(C)ccc5=O)cc4)nn3)[C@H]2O)[C@](C)(O)C[C@@H](C)CN(C)[C@H](C)[C@@H](O)[C@]1(C)O [Compound 15b]
- IC50 (VERO; [2]): 53.2 ± 0.1 µM
- IC50 (MRC-5): 36.1 ± 6.1 µM
- IC50 (A549; [3]): 35.2 ± 5.4 µM
- IC50 (Hep-G2; [4]): 27.7 ± 3.3 µM

Structure (SMILES): CC[C@H]1OC(=O)[C@H](C)[C@@H](O[C@H]2C[C@@](C)(OC)[C@@H](O)[C@H](C)O2)[C@H](C)[C@@H](O[C@@H]2O[C@H](C)C[C@H](N(C)Cc3ccc(-c4cn(CCCCc5ccc(-n6cc(C)ccc6=O)cc5)nn4)cc3)[C@H]2O)[C@](C)(O)C[C@@H](C)CN(C)[C@H](C)[C@@H](O)[C@]1(C)O [Compound 15c]
- IC50 (VERO; [2]): 5.9 ± 0.1 µM
- IC50 (MRC-5): 5.7 ± 0.1 µM
- IC50 (A549; [3]): 5 ± 0.2 µM
- IC50 (Hep-G2; [4]): 2.6 ± 0.1 µM

Structure (SMILES): CCC1OC(=O)[C@H](C)[C@H](OC2C[C@@](C)(OC)[C@@H](O)[C@H](C)O2)[C@H](C)[C@@H](OC2O[C@H](C)C[C@H](N(C)CCCCC#Cc3ccc(-n4cc(C)ccc4=O)cc3)[C@H]2O)[C@@](C)(OC)C[C@@H](C)C(=O)[C@H](C)[C@@H](O)[C@]1(C)O (some centres unmarked) [Compound 19d]
- IC50 (VERO; [5]): 24.3 ± 0.1 µM
- IC50 [1]: 28.9 ± 1.9 µM
- IC50 (A549; [6]): 35.4 ± 2.1 µM
- IC50 (Hep-G2; [7]): 32 ± 0.1 µM

Structure (SMILES): CCC1OC(=O)[C@H](C)[C@H](OC2C[C@@](C)(OC)[C@@H](O)[C@H](C)O2)[C@H](C)[C@@H](OC2O[C@H](C)C[C@H](N(C)CCCCCC#Cc3ccc(-n4cc(C)ccc4=O)cc3)[C@H]2O)[C@@](C)(OC)C[C@@H](C)C(=O)[C@H](C)[C@@H](O)[C@]1(C)O (some centres unmarked) [Compound 19e]
- IC50 (VERO; [5]): 13.2 ± 0.7 µM
- IC50 [1]: 24.2 ± 0.6 µM
- IC50 (A549; [6]): 23.8 ± 2.1 µM
- IC50 (Hep-G2; [7]): 23.7 ± 2 µM

Structure (SMILES): CC[C@H]1OC(=O)[C@H](C)[C@@H](O[C@H]2C[C@@](C)(OC)[C@@H](O)[C@H](C)O2)[C@H](C)[C@@H](O[C@@H]2O[C@H](C)C[C@H](N(C)CC#Cc3ccc(-n4cc(C)ccc4=O)cc3)[C@H]2O)[C@](C)(O)C[C@@H](C)CN(C)[C@H](C)[C@@H](O)[C@]1(C)O [Compound 20a]
- IC50 (VERO; [2]): 71.4 ± 6.3 µM
- IC50 (MRC-5): 23.3 ± 3.3 µM
- IC50 (A549; [3]): 55.9 ± 6.4 µM
- IC50 (Hep-G2; [4]): 53.4 ± 3.3 µM

Structure (SMILES): CC[C@H]1OC(=O)[C@H](C)[C@@H](O[C@H]2C[C@@](C)(OC)[C@@H](O)[C@H](C)O2)[C@H](C)[C@@H](O[C@@H]2O[C@H](C)C[C@H](N(C)CCC#Cc3ccc(-n4cc(C)ccc4=O)cc3)[C@H]2O)[C@](C)(O)C[C@@H](C)CN(C)[C@H](C)[C@@H](O)[C@]1(C)O [Compound 20b]
- IC50 (VERO; [2]): 28.5 ± 1.8 µM
- IC50 (MRC-5): 19.1 ± 2.6 µM
- IC50 (A549; [3]): 31.2 ± 4.8 µM
- IC50 (Hep-G2; [4]): 24.8 ± 1.7 µM

Structure (SMILES): CC[C@H]1OC(=O)[C@H](C)[C@@H](O[C@H]2C[C@@](C)(OC)[C@@H](O)[C@H](C)O2)[C@H](C)[C@@H](O[C@@H]2O[C@H](C)C[C@H](N(C)CCCC#Cc3ccc(-n4cc(C)ccc4=O)cc3)[C@H]2O)[C@](C)(O)C[C@@H](C)CN(C)[C@H](C)[C@@H](O)[C@]1(C)O [Compound 20c]
- IC50 (VERO; [2]): 36.4 ± 3.8 µM
- IC50 (MRC-5): 41.7 ± 0.1 µM
- IC50 (A549; [3]): 42.7 ± 8.4 µM
- IC50 (Hep-G2; [4]): 45.2 ± 7.4 µM

Structure (SMILES): O=C(O)/C=C/C=C/c1ccc2c(c1)OCO2 [Piperic acid (PPA), Piperic acid, reference compound]
- IC50 (VERO; [5]): > 500 µM
- IC50 [1]: > 500 µM
- IC50 (A549; [6]): > 500 µM
- IC50 (Hep-G2; [7]): > 500 µM

Structure (SMILES): Cc1ccc(=O)n(-c2ccccc2)c1 [Pirfenidone (Pir), Pirfenidone, reference compound]
- IC50 (VERO; [5]): 10788 ± 0.6 µM
- IC50 [1]: 5300 ± 178 µM
- IC50 (A549; [6]): 5410 ± 241 µM
- IC50 (Hep-G2; [7]): 10900 µM
